# Assay results taken from patent publication US20190086432A1, “SYSTEMS AND METHODS RELATED TO HUMAN NON-INVASIVE DRUG TESTING” (priority 2017, published 2019).
# Key:
# physchem = conditions: pH 9.5, aqueous buffer
# [1] = people driving; similar to 0.08 breath alcohol; cited from earlier work
# [2] = sustained abstinence in chronic frequent smokers; cited from earlier work
SMILES,solubility (physchem),blood concentration showing increased weaving within the lane [1],time residual THC can be detected in blood [2]
COc1cc(NS(C)(=O)=O)ccc1N [OX0245],≥ 1000 µg/mL,–,–
"CCCCCc1cc(O)c2c(c1)OC(C)(C)[C@@H]1CCC(C)=C[C@@H]21 [THC, Δ-9-tetrahydrocannabinol]",–,13.1 µg/L,up to a month
